Results taken from patent publication US20200147039A1, “COMPOUNDS USEFUL IN INHIBITING HUMAN TREFOIL FACTOR 3” (NATIONAL UNIVERSITY OF SINGAPORE, priority 2017, published 2020).

Columns and labels:
H1299 = test: AlamarBlue cell viability assay, H1299; type: cell-based; details: Homo sapiens, NCI-H1299, Lung
Experimental: (§1) The human immortalized mammary epithelial cell lines, MCF10A, and MCF12A; and immortalized hepatocellular epithelial cell line, LO2 were obtained from the American Type Culture Collection (ATCC, Rockville, Md.) and were cultured as per ATCC propagation instructions. MC cell lines, MCF7, T47D, BT474, BT20, MDA-MB-361, MDA-MB-436, MDA-MB-468, and MDA-MB-231; endometrial carcinoma cell lines, Ishikawa, ECC1, RL95-2 and AN3; hepatocellular carcinoma cell lines, Hep3B, H2P, and H2M; colon carcinoma cell lines, DLD-1, and Caco-2; and prostate carcinoma cell lines, PC3, LNCaP, and DU145 were obtained from the American Type Culture Collection (ATCC, Rockville, Md.). Pancreatic carcinoma cell lines, AsPC-1 and BxPC-3; Lung carcinoma cell lines, HCC-827, NCI-H1975, HCC-4006, PC-14, and NCI-H1299; and Thyroid carcinoma cell lines HTH83, CAL62, T238, and OGK-M were obtained from Prof. H. Phillip Koeffler's laboratory at The Cancer Science Institute of Singapore, National University of Singapore (NUS). Gastric carcinoma cell lines, AGS, MKN-28, MKN-45, and A2-528 were obtained from Prof. […]
(§2) In table 9 IC50 values of compound 43 compound library in several cancer cell lines are tabulated, using an AlamarBlue® cell viability assay as previously described in Pandey V et al., Breast Cancer Res. 2014; 16(5):429. Statistical analysis was assessed by using GraphPad Prism5. […]

H1975 = test: AlamarBlue cell viability assay, H1975; type: cell-based; details: Homo sapiens, NCI-H1975, Lung
Experimental: as §1, §2

PC3 = test: AlamarBlue cell viability assay, PC3; type: cell-based; details: Homo sapiens, PC-3, Prostate
Experimental: as §1, §2

[1] = tested on: TFF3-high expressing mammary carcinoma (MC) cell lines; test: AlamarBlue viability and Annexin V-FITC/PI flow cytometry in mammary carcinoma cell lines (FIG. 1); type: cell-based, human
Description: (§3) (A) Inhibitory concentration 50% (IC50) values for compound 43 in the MC cell lines are tabulated, using an AlamarBlue™ cell viability assay as previously described in Pandey V et al., Breast Cancer Res. 2014; 16(5):429. (B) Measured dose-dependent manner effect of compound 43 on the viability of MC cells (left-side, TFF3-high and right, TFF3-low) using AlamarBlue™ viability assay as previously described (ibid). (C) Apoptotic cell death of mammary carcinoma cell lines measured after treatment with 10 μM compound 43 using flow cytometry analysis at 24 hour as described previously in Keerthy H K et al., PloS one. 2014; 9(9):e107118. Annexin V-FITC staining is indicated on the X-axis and PI staining on the Y-axis. […] Acquisition of Annexin V and PI data were represented as percentage (%) in each quadrant. Note: CM, conditioned media; MCF10A and MCF12A, non-transformed immortalized-mammary epithelial cell line. Points are mean of triplicate experiments; bars, ±SD. Statistical significance was assessed by using an unpaired two-tailed Student's t test (P<0.05 was considered as significant) using GraphPad Prism5. Columns are mean of triplicate experiments; bars, ±SD. **P<0.001, *P<0.05.

Ishikawa = test: AlamarBlue cell viability assay, Ishikawa; type: cell-based; details: Homo sapiens, Endometrial
Experimental: as §1, §2

MCF7 = test: qPCR analysis of mRNA levels of genes associated with oncogenic progression, MCF7; type: cell-based, human; details: MCF7, 10 μM
Experimental: Total RNA was isolated from cells using TRIzol Plus RNA Purification system as previously described in Pandey V et al., Endocrinology. 2010; 151(3):909-920. qPCR assays were performed as previously described in Pandey V et al., Endocrinology. 2010; 151(3):909-920; and Pandey V et al., Endocrinology. 2008; 149(8):3909-3919. Gene expression analysis was performed as previously described in Pandey V et al., Endocrinology. 2010; 151(3):909-920; and Pandey V et al., Endocrinology. 2008; 149(8):3909-3919.

PC-14 = test: AlamarBlue cell viability assay, PC-14; type: cell-based; details: Homo sapiens, Lung
Experimental: as §1, §2

MCF-7 = test: AlamarBlue cell viability assay, MCF7; type: cell-based, human
Description: as §3
The human immortalized mammary epithelial cell lines, MCF10A, and MCF12A; and immortalized hepatocellular epithelial cell line, LO2 were obtained from the American Type Culture Collection (ATCC, Rockville, Md.) and were cultured as per ATCC propagation instructions. MC cell lines, MCF7, T47D, BT474, BT20, MDA-MB-361, MDA-MB-436, MDA-MB-468, and MDA-MB-231; endometrial carcinoma cell lines, Ishikawa, ECC1, RL95-2 and AN3; hepatocellular carcinoma cell lines, Hep3B, H2P, and H2M; colon carcinoma cell lines, DLD-1, and Caco-2; and prostate carcinoma cell lines, PC3, LNCaP, and DU145 were obtained from the American Type Culture Collection (ATCC, Rockville, Md.). Pancreatic carcinoma cell lines, AsPC-1 and BxPC-3; Lung carcinoma cell lines, HCC-827, NCI-H1975, HCC-4006, PC-14, and NCI-H1299; and Thyroid carcinoma cell lines HTH83, CAL62, T238, and OGK-M were obtained from Prof. H. Phillip Koeffler's laboratory at The Cancer Science Institute of Singapore, National University of Singapore (NUS). Gastric carcinoma cell lines, AGS, MKN-28, MKN-45, and A2-528 were obtained from Prof. Yoshiaki Ito's laboratory at The Cancer Science Institute of Singapore, NUS. All cell lines were cultured as per ATCC propagation instructions.
The above synthesised compounds were initially evaluated against a range of carcinoma cells using an AlamarBlue™ cell viability assay (using the protocol discussed above). The tested compounds were generally efficacious at reducing the viability of various carcinoma cells compared to vehicle (DMSO) treated cells. Table 8 provides selected IC50 data for certain of the compounds synthesised herein against MCF-7.
In table 9 IC50 values of compound 43 compound library in several cancer cell lines are tabulated, using an AlamarBlue® cell viability assay as previously described in Pandey V et al., Breast Cancer Res. 2014; 16(5):429. Statistical analysis was assessed by using GraphPad Prism5. Note: NV, no value.

A2-528 = test: AlamarBlue cell viability assay, A2-528; type: cell-based; details: Homo sapiens, Gastric
Experimental: as §1, §2

BxPC-3 = test: AlamarBlue cell viability assay, BxPC-3; type: cell-based; details: Homo sapiens, Pancreatic
Experimental: as §1, §2

For Cc1cc(-c2ccc(C3C(C#N)=C(N)Oc4c3c(=O)oc3ccccc43)cc2)cnc1F (stereo not shown) [Compound 43, 2-Amino-4-(4-(6-fluoro-5-methylpyridin-3-yl)phenyl)-5-oxo-4H,5H-pyrano[3,2-c]chromene-3-carbonitrile], the IC50 (H1299) was 18.6 µM, the IC50 (H1975) was 11.8 µM and the IC50 (PC3) was 0.68 µM. For the same molecule, the apoptosis ([1]; 10 μM, 24 hour, Annexin V-FITC/PI flow cytometry) was “stimulates apoptosis”, the cell viability ([1]; AlamarBlue) was “suppresses cell viability” and the IC50 (Ishikawa) was 0.94 µM. The “APAF1 mRNA, Fold change relative to vehicle control” value (MCF7) was 0.94 fold, the “ATM mRNA, Fold change relative to vehicle control” value (MCF7) was 0.32 fold and the “BAD mRNA, Fold change relative to vehicle control” value (MCF7) was 0.09 fold. For the same molecule, the “BAK1 mRNA, Fold change relative to vehicle control” value (MCF7) was 2.09 fold, the “BAX mRNA, Fold change relative to vehicle control” value (MCF7) was 18.54 fold and the “BCL2L1 mRNA, Fold change relative to vehicle control” value (MCF7) was 0.04 fold. For the same molecule, the “BCL2 mRNA, Fold change relative to vehicle control” value (MCF7) was 0.06 fold, the “BCLAF1 mRNA, Fold change relative to vehicle control” value (MCF7) was 0.87 fold and the “BRCA1 mRNA, Fold change relative to vehicle control” value (MCF7) was 2.00 fold. The “CASP7 mRNA, Fold change relative to vehicle control” value (MCF7) was 30.71 fold, the “CCND1 mRNA, Fold change relative to vehicle control” value (MCF7) was 0.01 fold and the “CDC25A mRNA, Fold change relative to vehicle control” value (MCF7) was 0.49 fold. For the same molecule, the “CDK2 mRNA, Fold change relative to vehicle control” value (MCF7) was 0.15 fold, the “CDK4 mRNA, Fold change relative to vehicle control” value (MCF7) was 0.18 fold and the “CDKN1A mRNA, Fold change relative to vehicle control” value (MCF7) was 114.92 fold. For the same molecule, the “CDKN1B mRNA, Fold change relative to vehicle control” value (MCF7) was 11.08 fold, the “CDKN2A mRNA, Fold change relative to vehicle control” value (MCF7) was 5.45 fold and the “CFLAR mRNA, Fold change relative to vehicle control” value (MCF7) was 0.02 fold. For the same molecule, the “CHEK2 mRNA, Fold change relative to vehicle control” value (MCF7) was 1.14 fold, the “Cyclin E1 mRNA, Fold change relative to vehicle control” value (MCF7) was 0.01 fold and the “E2F1 mRNA, Fold change relative to vehicle control” value (MCF7) was 1.80 fold. For the same molecule, the “GZMA mRNA, Fold change relative to vehicle control” value (MCF7) was 0.93 fold, the “HTATIP2 mRNA, Fold change relative to vehicle control” value (MCF7) was 2.87 fold and the “MDM2 mRNA, Fold change relative to vehicle control” value (MCF7) was 6.62 fold. The “RB1 mRNA, Fold change relative to vehicle control” value (MCF7) was 1.00 fold, the “S100A4 mRNA, Fold change relative to vehicle control” value (MCF7) was 1.49 fold and the “TERT mRNA, Fold change relative to vehicle control” value (MCF7) was 0.11 fold. For the same molecule, the “TNFRSF1A mRNA, Fold change relative to vehicle control” value (MCF7) was 1.15 fold, the “TNFRSF10B mRNA, Fold change relative to vehicle control” value (MCF7) was 1.05 fold and the “TNFRSF25 mRNA, Fold change relative to vehicle control” value (MCF7) was 1.41 fold. The “TP53 mRNA, Fold change relative to vehicle control” value (MCF7) was 282.98 fold, the IC50 (PC-14) was 24.2 µM and the IC50 (MCF-7; Homo sapiens, MCF7, MCF-7, AlamarBlue cell viability (Table 8)) was 3.21 µM. For the same molecule, the IC50 (MCF-7; Homo sapiens, MCF7, Mammary, MCF7) was 3.21 µM, the IC50 (MCF-7; MCF-7, AlamarBlue cell viability (Table 8)) was 4.51 µM and the IC50 (A2-528) was 34.1 µM. It also gave an IC50 (BxPC-3) of 2.56 µM.
